# Laboratory results reported in patent US20130296346A1, “DIPHENYL-AMINE DERIVATIVES: USES, PROCESS OF SYNTHESIS AND PHARMACEUTICAL COMPOSITIONS” (Faes Farma, S.A., priority 2010, published 2013).
# Key:
# [1] = Cytotoxicity for human non-tumoral cells, XTT; type: cell-based; details: HUVEC cells (primary, from human cords)
# Description: (§1) The cytotoxicity of the compounds for human non-tumoral cells was studied in fibroblasts, HUVEC cells and resting PBLs (Peripheral Blood lymphocytes).
# HUVEC cells were obtained by treating human cords with collagenase type I, […] in Hank's medium incubating 20 minutes at 37° C. Cells were collected afterwards and cultivated in medium M199 with supplements of 20% FBS, 1% P/S and 25 mg/500 ml of medium ECGF, Cells were grown on a 0.2% gelatin matrix.
# (§2) Distinct amounts of exponentially growing cells were seeded in 96-well flat-bottomed microtiter plates in a final volume of 100 μl were seeded in 96-well flat-bottomed microtiter plates, and incubated at 37° C. in a humidified atmosphere of 5% CO2/95% air for 24 h to allow the cells attach to the plates. Then, cells were incubated with different concentrations of the assayed compound at 37° C. under the 5% CO2/95% air atmosphere for 72 h. Cell proliferation was quantified using the XTT cell proliferation kit (Roche Molecular Biochemicals, Mannheim, Germany) following the manufacturer's instructions. Briefly, a freshly prepared mixture solution (50 μl) of XTT labelling reagent and PMS (N-methyldibenzopyrazine methyl sulfate) electron coupling reagent was added to each well. The resulting mixtures were further incubated for 4 h in a humidified atmosphere (37° C., 5% CO2), and the absorbance of the formazan product generated was measured with a microtiter plate reader at a test wavelength of 490 nm and a reference wavelength of 655 nm. The IC50 (50% inhibitory concentration) was then calculated as the drug concentration causing a 50% inhibition of cell proliferation. Data are shown as mean values of four independent experiments each performed in triplicate.
# [2] = Cytotoxicity for human non-tumoral cells, XTT; type: cell-based; details: Fibroblasts
# Description: as §1, §2
# [3] = system: colorectal cancer cells from patients with Kras mutation; test: Mutated Kras colon cancer orthotopic animal model; type: in vivo, mice; details: compared with vehicle control, FIG. 4A
# Description: Using an animal model based on colorectal cancer cells from patients with Kras mutation, implanted on mice in the colon area (Yao, M. Cyclooxygenase-2 selective inhibition with NS-398 suppresses proliferation and invasiveness and delays liver metastasis in colorectal cancer. Br. J. Cancer, 2004 Feb. 9; 90(3):712-9), the effects of Compound 3 were tested.
# B16 melanoma mouse cells = test: Melanoma orthotopic animal model; type: in vivo; details: 30 mg/kg intraperitoneal
# Description: Compound 3 dose was 30 mg/kg intraperitoneal in all of these experiments.
# FIG. 5A represents a PET picture of melanoma tumor luciferase activity in vivo. The intensity of the signal is higher on tumours with more proliferative cells. […] FIG. 5C is a graph showing melanoma tumor weight after control or Compound 3 treatment. 4 different and independent experiments with n=4 animals per group were carried out.
# MOSEC IDB cells = test: Ovarian tumor orthotopic animal model; type: in vivo, mice; details: 30 mg/Kg i.p. 5 days per week during 2 weeks
# Description: Experiments were performed using MOSEC IDB cells (mouse ovarian surface epithelial cells) with cloned luciferase reporter and cells implanted on mice ovarian region (Yu-Hung Huang et al, Claudin-3 gene silencing with siRNA suppresses ovarian tumor growth and metastasis. 3426-3430 PNAS 2009. vol. 106, no. 9).
# FIG. 6A represents a Pet picture of luciferase activity in vivo tumor (Compound 3 treated mice: 30 mg/Kg i.p. 5 days per week during 2 weeks).
# EHEB cells = test: Expression of proteins by immunoblotting in EHEB cells; type: cell-based, human; details: 10 μM
# Description: Expression of different proteins in Compound 3-treated EHEB cells (FIG. 7B). Cells were treated with 10 μM Compound 3 for the indicated times and analyzed by immunoblotting with specific antibodies for the indicated proteins. The migration positions of the different proteins are indicated. β-actin was used as a loading control. Data shown are representative of three experiments performed.
# HCT-116 = test: Apoptosis, sub-G1 peak and caspase activation; type: cell-based, human; details: HCT-116, 10 μM
# Description: (§3) Induction of apoptosis in human colon cancer HCT-116 cell line by Compound 3 (FIG. 8A). The induction of apoptosis was quantitated as the percentage of cells in the sub-G1 region (hypodiplody) of cell cycle analysis. Briefly, cells (5×10^5) were centrifuged and fixed overnight in 70% ethanol at 4° C. Cells were washed 3 times with PBS, incubated for 1 h with 1 mg/ml RNaseA and 20 μg/ml propidium iodide at room temperature, and then analyzed for cell cycle with a Becton Dickinson FACSCalibur flow cytometer (San Jose, Calif.). HCT-116 cells were incubated for the indicated times with 10 μM Compound 3, and apoptosis was then quantitated as percentage of cells in the sub-G1 region in cell cycle analysis by flow cytometry. The position of the sub-G1 peak (hypodiploidy), integrated by apoptotic cells, as well as the G0/G1 and G2/M peaks are indicated by arrows. Untreated control cells were run in parallel. The percentage of cells with a DNA content less than G1 (sub-G1) is indicated in each histogram. The experiment shown is representative of three performed Expression of different apoptosis-related proteins during Compound 3 treatment (FIG. 8B), HCT-116 and SW620 cells were treated with 10 μM Compound 3 for the indicated times and analyzed by immunoblotting with specific antibodies for the indicated proteins. […]
# SW620 = test: Apoptosis, sub-G1 peak and caspase activation; type: cell-based, human; details: SW620, 10 μM
# Description: as §3
# [4] = system: haematological cancer cell lines; test: Apoptosis induction in haematological cancer cell lines; type: cell-based
smiles,measurement,setting,value
"Fc1ccc(CNCCCC=C(c2ccccc2)c2ccccc2)cc1 [Compound 3, (5,5-diphenyl-pent-4-enyl)-(4-fluoro-benzyl)-amine hydrocloride]",IC50 at 72 h,[1],16 µM
same,IC50 at 72 h,[2],19 µM
same,tumour volume of human colorectal cancer,[3],clear reduction effect of the tumour volume
same,"in vivo antitumor activity, melanoma",B16 melanoma mouse cells,potent in vivo antitumor activity
same,"in vivo antitumor activity, ovarian tumor area",MOSEC IDB cells,potent in vivo antitumor activity reducing the tumor area
same,caspase-3,EHEB cells,activation
same,cleavage of PARP,EHEB cells,rapid cleavage
same,Caspase-4,EHEB cells; EHEB cells,activated
same,caspase-9,EHEB cells; EHEB cells,activated
same,induction of autophagy (LC3-II formation),EHEB cells; EHEB cells,very rapid and potent induction of autophagy
same,"apoptosis (sub-G1 peak, caspase activation)",HCT-116,induces apoptosis
same,"apoptosis (sub-G1 peak, caspase activation)",SW620,induces apoptosis
same,concentration inducing apoptosis in haematological cancer cell lines,[4],~10^−6 M
